Measured values taken from paper PMC12655551, “Design, Synthesis, and Evaluation of Pyrrole-Based Selective MAO-B Inhibitors with Additional AChE Inhibitory and Neuroprotective Properties Identified via Virtual Screening” (Pharmaceuticals, 2025).
Read-outs that look alike come from different tables or passages of the source.

Columns and labels:
[1] = test system: isolated rat brain mitochondria; assay: t-BuOOH-induced oxidative stress in isolated rat brain mitochondria; assay type: cell-based; conditions: compound 50 µM with t-BuOOH 75 μM
Method: (§1) Two types of buffers were used for the isolation of the rat brain synaptosomes and mitochondria. Buffer A was 5 mM HEPES and 0.32 M Sucrose; Buffer B was 290 mM NaCl, 0.95 mM MgCl2 × 2H2O, 10 mM KCl, 2.4 mM CaCl2 × 2H2O, 2.1 mM NaH2PO4, 44 mM HEPES, 13 mM D-Glucose. For the gradient centrifugation, Percoll reagent was used. A stock solution of 90% Percoll was used to prepare 16%, 10% and 7.5% solutions. All the solutions were used as described below. Immediately after harvesting, synaptosomes, microsomes, and mitochondria were incubated with the exam compounds for 1 h. For assessing the possible neurotoxicity of the most MAOB active compounds, the sub-cellular fractions were incubated with 100 µM of them, and for evaluating their possible neuroprotective and antioxidant activities in different models of neurotoxicity, the sub-cellular fractions were incubated with 50µM of them. The protein measurement of all the sub-cellular fractions was made by the method of Lowry et al., 1951 [57].
The mitochondria were prepared by multiple differential fractionation using a Percoll gradient.
The mitochondria were incubated with 75 μM t-BuOOH [57].
After incubation of the mitochondria, 0.3 mL 0.2% TBA and 0.25 mL sulfuric acid (0.05 M) were added to stop the reaction. The tubes were maintained at 100 °C for 30 min. In the next stage, centrifugation of the tubes was carried out at 3500× g for 10 min. Assessment of the total quantity of MDA formed in each sample was measured in the supernatant at 532 nm.
After incubation of mitochondria, 0.04% DTNB was mixed with the mitochondrial suspensions in 0.1 M phosphate buffer (pH 7.4). The absorbance of the yellow product was measured at 412 nm.

[2] = test system: isolated rat brain synaptosomes; assay: 6-OHDA-induced neurotoxicity in isolated rat brain synaptosomes; assay type: cell-based; conditions: compound 50 µM with 6-OHDA 150 μM
Method: as §1
The synaptosomes were prepared from rat brains by multiple sub-cellular fractionation using a Percoll gradient.
This in vitro model resembles the neurodegenerative processes occurring in PD. Dopamine metabolism and oxidation led to the formation of reactive oxygen species (ROS) and reactive quinones. These processes were catalyzed by the MAOB enzyme. They induced dopamine neurotoxicity and neurodegeneration. The synaptosomes were incubated with 150 μM 6-OHDA for 1 h.
After the incubation, the synaptosomes were centrifuged three times at 15,000× g for 1 min. MTT-test was performed to determine synaptosomal vitality by the method described by Mungarro-Menchaca et al..
The level of GSH was determined by measuring the non-protein SH-groups after precipitation of the proteins with trichloroacetic acid (TCA). The presence of thiols in the supernatant was determined using Elmman’s reagent. The resulting yellow color was measured spectrophotometrically (λ = 412 nm).

[3] = target: T1, recombinant human MAO-B (hMAOB) (Homo sapiens, UniProt P27338); assay: biochemical; assay type: biochemical; conditions: 1 µM compound
T1 sequence (P27338 1-520): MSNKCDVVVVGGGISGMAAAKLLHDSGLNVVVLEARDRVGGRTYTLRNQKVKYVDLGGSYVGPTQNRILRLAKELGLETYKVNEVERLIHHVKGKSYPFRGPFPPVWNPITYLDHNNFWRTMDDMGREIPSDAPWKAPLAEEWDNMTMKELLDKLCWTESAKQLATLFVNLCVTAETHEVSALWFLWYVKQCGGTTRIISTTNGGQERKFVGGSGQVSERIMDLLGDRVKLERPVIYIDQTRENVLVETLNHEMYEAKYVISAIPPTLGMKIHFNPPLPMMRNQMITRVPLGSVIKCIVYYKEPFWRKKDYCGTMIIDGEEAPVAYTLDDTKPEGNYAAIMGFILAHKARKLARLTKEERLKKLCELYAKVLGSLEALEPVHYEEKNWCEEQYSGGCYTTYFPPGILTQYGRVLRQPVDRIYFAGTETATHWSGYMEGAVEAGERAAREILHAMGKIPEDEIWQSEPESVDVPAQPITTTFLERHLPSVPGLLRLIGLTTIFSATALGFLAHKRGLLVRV
Method: Monoamine oxidase (MAO) activity for both recombinant human MAO-A (hMAOA) and MAO-B (hMAOB) was assessed using a fluorometric assay based on the Amplex® UltraRed reagent. This method, originally reported by Bautista-Aguilera et al. and later adapted with minor changes by Kasabova-Angelova et al., detects hydrogen peroxide or peroxidase activity present in enzymes or biological samples. In this assay, Amplex® Red reacts in a 1:1 molar ratio with hydrogen peroxide in the presence of peroxidase, producing the red-fluorescent compound resorufin. Due to resorufin’s strong extinction coefficient (58,000 ± 5000 cm^−1·M^−1), measurements could be accurately taken using either fluorometric or spectrophotometric methods. […] The control conditions included the use of purified hMAOA or hMAOB in reaction buffer, enzyme solutions with hydrogen peroxide, and buffer alone. All the test compounds were initially prepared at a 1 µM final concentration. These compounds were combined with either hMAOA or hMAOB and loaded into a 96-well plate (with eight replicates per test compound), followed by incubation for 30 min at 37 °C in the dark. Subsequently, a 50 µL detection mix was added to each well. This mix contained Amplex® Red, horseradish peroxidase (HRP), and tyramine substrate, all prepared in a reaction buffer. As this enzymatic reaction proceeded continuously, the fluorescence signal was recorded every 30 min (at 0, 30, 60, 90, 120, and 150 min) to track enzymatic kinetics.

BChE = target: T2, BChE (Equus caballus, UniProt P81908); assay: biochemical; conditions: for inhibition at 200 µM: read-out: Inhibition Activity 200 µM BChE
T2 construct: purchased Sigma-Aldrich, Hamburg, Germany; host or cells: equine serum
T2 sequence (P81908 whole entry): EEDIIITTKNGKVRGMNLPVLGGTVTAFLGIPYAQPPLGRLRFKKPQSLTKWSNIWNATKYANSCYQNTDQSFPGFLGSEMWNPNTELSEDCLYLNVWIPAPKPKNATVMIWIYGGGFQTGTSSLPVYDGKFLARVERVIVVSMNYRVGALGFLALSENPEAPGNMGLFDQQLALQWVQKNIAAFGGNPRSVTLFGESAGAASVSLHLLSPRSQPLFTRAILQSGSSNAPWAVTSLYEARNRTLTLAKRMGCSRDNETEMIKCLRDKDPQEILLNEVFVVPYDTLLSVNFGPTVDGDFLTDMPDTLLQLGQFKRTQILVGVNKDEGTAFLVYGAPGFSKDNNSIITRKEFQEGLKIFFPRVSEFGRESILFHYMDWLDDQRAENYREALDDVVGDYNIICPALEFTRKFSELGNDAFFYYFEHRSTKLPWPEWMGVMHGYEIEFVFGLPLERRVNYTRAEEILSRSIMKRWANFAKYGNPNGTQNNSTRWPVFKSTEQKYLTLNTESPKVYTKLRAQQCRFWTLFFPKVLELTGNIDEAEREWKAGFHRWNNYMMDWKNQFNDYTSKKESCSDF
Method: AChE and BChE inhibitory activity of the newly synthesized pyrrole-based compounds was measured using the microplate assay described by Ellman et al. with the modifications added by López et al.. The compounds were tested at concentrations between 0.01 and 200 μM. First, they were dissolved in phosphate buffer (PBS) (8 mM K2HPO4, 2.3 mM NaH2PO4, 0.15 M NaCl, pH 7.5), assisted by the addition of no more than 5% MeOH. Then, they were serially diluted with PBS to provide the concentration range needed. Acetylcholinesterase from Electrophorus electricus and butyrylcholinesterase from equine serum (Sigma-Aldrich, Hamburg, Germany) were used with a substrate solution of 5,5′-dithiobis(2-nitrobenzoic acid) (DTNB) with acetylthiocholine iodide (ATCI) or butyrylthiocholine iodide (BTCI), respectively (0.04 M Na2HPO4, 0.2 mM DTNB, 0.24 mM ATCI or BTCI, pH 7.5). A total of 50 μL of AChE or BChE (0.25 U/mL, in PBS) and 50 μL of the tested compound solution were added to the wells. Incubation of the plates was performed at room temperature for 30 min. Then, 100 μL of substrate solution was added to start the enzymatic reaction. […] Enzyme activity was calculated as an inhibition percentage compared to an assay including buffer instead of an inhibitor.

Structure (SMILES)	decrease of MDA production compared to the toxic agent [1]	preservation of GSH level compared to toxic t-BuOOH [1]	preservation of GSH level compared to toxic 6-OHDA [2]	inhibition at 1 µM [3]	IC50 (BChE; means ± SD of three experiments, read-out: BChE IC50)	inhibition at 200 µM (BChE)	IC50 (BChE; BChE IC50, means ± SD of three experiments)
Cc1ccc(C)n1-c1ccc(CC(=O)O)cc1 [EM-DC-27, [4-(2,5-dimethyl-1H-pyrrol-1-yl)phenyl]acetic acid]	48%	30%	20%	50 ± 7.1%	> 200 µM	0%	–
Cc1ccc(C)n1C(Cc1cnc[nH]1)C(=O)O (stereo not drawn) [EM-DC-19, 2-(2,5-dimethyl-1H-pyrrol-1-yl)-3-(2H-imidazol-4-yl)propanoic acid]	52%	30%	20%	50 ± 7.1%	–	18.03 ± 0.17%	> 200 µM
